From patent US20240124483A1, “Methods for the Treatment of Fibrotic Disease” (SHY Therapeutics, LLC, priority 2021, published 2024) come the findings set out here.

The subject of one assay is ERK1/2 phosphorylation. Kind of assay: Western ERK1/2 Cell-Based Phosphorylation Assay. As to conditions: Homo sapiens, PANC-1, 6 hours, EGF 1.5 ng/ml, read-out: % inh of ERK1/2 phosphorylation in PANC-1. The protocol:
Cell lines: Human tumor-derived pancreatic cancer cell line Panc-1 was purchased from American Type Culture Collection and grown in complete DMEM-High Glucose, supplemented with penicillin (100 U/mL), streptomycin (100 μg/mL), and 10% heat-inactivated FBS at 37° C. in a humidified incubator with 5% CO2.
(§1) Method: Cells were plated at 350000 cells/well density in a 12-well plate, allowed 3 hours to adhere to the plate, then starved in the appropriate medium in the presence of 0.5% FBS overnight. The small molecules to be tested were added to the cells in the final concentration of 10 μM in the presence of 0.3% DMSO for 6 hours incubation at 37° C. For IC50 value determination, serial dilutions of compounds were added to cells under the same conditions. Next, cells were stimulated with 1.5 ng/ml EGF for 15 minutes then cells were lysed with lysis buffer containing 1% Triton X-100, EDTA, and Halt™ Protease & Phosphatase Inhibitor Cocktail (Thermo Scientific). Protein concentration was assessed by BCA protein assay (Thermo Scientific). Phosphorylation level of ERK1/2 was determined by western blot.
(§2) Western blot protocol: Equal amounts of protein (15-50 μg) were separated by SDS-PAGE and transferred to nitrocellulose membranes (Invitrogen by Thermo Fisher Scientific). The membrane was stained with Ponceau S Stain (Boston BioProducts) to verify uniform protein loading. Membranes were blocked with 10% milk and phosphorylation levels of ERK1/2 were assessed by incubating overnight at 4° C. with anti-phospho-p44/42 (Thr202/Tyr204) antibody (Cell Signaling) followed by HRP-conjugated secondary antibody (Jackson Immunoresearch, West Grove, PA). Bands were incubated in Amersham ECL Prime Western Blotting Detection Reagent (GE Healthcare) and visualized using the ChemiDoc MP imaging system (Bio-Rad).

The subject of a further assay is AKT phosphorylation. In words: Western AKT Cell-Based Phosphorylation Assay. Particulars: Homo sapiens, PANC-1, 6 hours, EGF 1.5 ng/ml, read-out: % inh of AKT phosphorylation in PANC-1. The protocol:
Human tumor-derived pancreatic cancer cell line Panc-1 was purchased from American Type Culture Collection and grown in complete DMEM-High Glucose supplemented with penicillin (100 U/mL), streptomycin (100 μg/mL), and 10% heat-inactivated FBS at 37° C. in a humidified incubator with 5% CO2.
as §1, with “C.” for “C. For IC50 value determination, serial dilutions of compounds were added to cells under the same conditions.”, “Akt” for “ERK1/2”
as §2, with “Akt” for “ERK1/2”, “anti-phospho-Akt (Ser473)” for “anti-phospho-p44/42 (Thr202/Tyr204)”

The next assay concerns the target KRas Q61H mutant (Homo sapiens (Human), UniProt P01116, Q61H). In words: Ras GTP Binding Domain Inhibition Assay, KRas Q61H mutant. As to conditions: 20 μM. The protocol:
A Ras Superfamily Activity Assay (as disclosed in International Application No. PCT/US2018/038613, filed Jun. 20, 2018, which is incorporated by reference in its entirety) was used as a specific assay to evaluate compounds against the following for the following Ras Superfamily proteins: KRas wild type, KRas Q61H mutant, KRas G12C mutant, KRas G12D mutant, Rac-1, and Rho-A.
Buffer-I: • 25 mM Tris-HCl, pH 7.4 • 27 mM KCl • 137 mM NaCl • 1 mM MgCl2 • 1 mM DTT
Buffer-II: • 50 mM Tris-HCl, pH 7.0 • 1 mM MgCl2 • 1 mM DTT
The small GTPases proteins: KRas wild type. KRas Q61H mutant, KRas G12C mutant, KRas G12D mutants, Rac-1, and Rho-A were expressed as His-tagged proteins. In addition, the Guanosine nucleotide Exchange Factor (GEF) Sos protein (residues 556-1049) was expressed as a His-tagged protein. In cells, the guanine nucleotide exchange factor Sos protein promotes activation of Ras proteins by stimulating an exchange of GDP for GTP. The inclusion of Sos to the Ras GTP binding domain inhibition assay may be considered as an alternative representation of physiological cellular conditions for evaluating the inhibitory activity of some of the tested small molecules.
For the assay, all purified small GTPases proteins were diluted in Buffer-I or Buffer-II to a final concentration of 10-30 μg/mL. 200 μL of each diluted protein was added to a nickel-coated 96-well plate and incubated overnight at 4° C. Then the protein solution was discarded and 200 μL of Buffer-I or Buffer-II was added to each well in the presence of 1% DMSO. Compounds to be tested were added to the protein-coated wells at final concentration of 20 μM, and incubated for 3 hours at room temperature with and without 10-30 μg/mL of Sos added to the final hour of the incubation. When performing IC50 measurements a serial dilution of all tested concentrations was added. Then Cy3-GTP or Cy5-GTP was added to each well to a final concentration of 100 nM. The labeled GTP was incubated for 45 minutes at room temperature. Following GTP incubation, wells were washed 3× in Buffer-I or Buffer-II and 200 μL of Buffer-I or Buffer-II was added to each well. Following washes, the amount of bound labeled-GTP was measured using a SpectraMax M3 (Molecular Devices).

Where [1] appears, read: + SOS, read-out: KRas Q61H mutant + SOS: % inh.
The mark [2] stands for this setting: without SOS, read-out: KRas Q61H mutant: % inh.

Like-named read-outs stand apart in the source and are kept apart here.

KRas Q61H mutant, sequence (P01116 other isoform, or with tags, fused parts or gaps Q61H): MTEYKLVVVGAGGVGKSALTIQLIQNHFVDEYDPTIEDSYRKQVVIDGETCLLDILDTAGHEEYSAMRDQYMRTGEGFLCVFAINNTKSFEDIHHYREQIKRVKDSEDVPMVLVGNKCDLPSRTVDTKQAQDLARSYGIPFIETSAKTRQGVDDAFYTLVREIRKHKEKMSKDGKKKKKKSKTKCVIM

With `CO[C@H]1C[C@H](CNc2nc(-c3nccn3C)nc3sc(-c4ccn(C(C)C)n4)c(C)c23)C1` [Compound 16, 6-(1-Isopropyl-1H-pyrazol-3-yl)-N-(((1r,3r)-3-methoxycyclobutyl)methyl)-5-methyl-2-(1-methyl-1H-imidazol-2-yl)thieno[2,3-d]pyrimidin-4-amine], the inhibition at 10 µM with ERK1/2 phosphorylation is 76 to 100%; in the assay on AKT phosphorylation, 0%. The inhibition at 20 µM at KRas Q61H mutant (setting [1]) and at KRas Q61H mutant (setting [2]) was 46 to 75% in each case.

On to `COc1cccc(Nc2nc(-c3nccn3C)nc3sc(-c4ccn(C(C)C)n4)c(C)c23)c1` [Compound 17, 6-(1-Isopropyl-1H-pyrazol-3-yl)-N-(3-methoxyphenyl)-5-methyl-2-(1-methyl-1H-imidazol-2-yl)thieno[2,3-d]pyrimidin-4-amine], for which the inhibition at 10 µM with ERK1/2 phosphorylation was in the range of 76 to 100%; in the assay with AKT phosphorylation it was 46 to 75%. For the same compound, the values for the inhibition at 20 µM at KRas Q61H mutant (setting [1]) and on KRas Q61H mutant (setting [2]) were 46 to 75% and 26 to 45%, respectively.

As for `COc1cccc(Nc2nc(-c3nccn3C)nc3sc(-c4ccn(C(C)C)n4)c(C)c23)n1` [Compound 18, 6-(1-Isopropyl-1H-pyrazol-3-yl)-N-(6-methoxypyridin-2-yl)-5-methyl-2-(1-methyl-1H-imidazol-2-yl)thieno[2,3-d]pyrimidin-4-amine], the figures for the inhibition at 10 µM with ERK1/2 phosphorylation and in the assay on AKT phosphorylation were 0% and 26 to 45%, respectively. Also, the inhibition at 20 µM on KRas Q61H mutant (setting [1]) and on KRas Q61H mutant (setting [2]) was 46 to 75% in each case.

With `COc1cc(Nc2nc(-c3nccn3C)nc3sc(-c4ccn(C(C)C)n4)c(C)c23)ncn1` [Compound 19, 6-(1-Isopropyl-1H-pyrazol-3-yl)-N-(6-methoxypyrimidin-4-yl)-5-methyl-2-(1-methyl-1H-imidazol-2-yl)thieno[2,3-d]pyrimidin-4-amine], the inhibition at 10 µM in the assay on ERK1/2 phosphorylation and in the assay on AKT phosphorylation was 76 to 100% in each case. Besides, the inhibition at 20 µM on KRas Q61H mutant (setting [1]) and on KRas Q61H mutant (setting [2]) was 76 to 100% each time.

As to `COCCOCCNc1nc(-c2nccn2C)nc2sc(-c3ccn(C(C)C)n3)c(C)c12` [Compound 21, 6-(1-Isopropyl-1H-pyrazol-3-yl)-N-(2-(2-methoxyethoxy)ethyl)-5-methyl-2-(1-methyl-1H-imidazol-2-yl)thieno[2,3-d]pyrimidin-4-amine], the inhibition at 10 µM in the assay with ERK1/2 phosphorylation is 0%; in the assay on AKT phosphorylation it was 1 to 25%. The inhibition at 20 µM at KRas Q61H mutant (setting [1]) and on KRas Q61H mutant (setting [2]) was 76 to 100% throughout.

Regarding `Cc1c(-c2ccn(C(C)C)n2)sc2nc(-c3nccn3C)nc(NCCN3CCOCC3)c12` [Compound 22, 6-(1-Isopropyl-1H-pyrazol-3-yl)-5-methyl-2-(1-methyl-1H-imidazol-2-yl)-N-(2-morpholinoethyl)thieno[2,3-d]pyrimidin-4-amine], the inhibition at 10 µM was 0% in the assay on ERK1/2 phosphorylation and 1 to 25% in the assay with AKT phosphorylation. For the same compound, the inhibition at 20 µM at KRas Q61H mutant (setting [1]) and on KRas Q61H mutant (setting [2]) was 76 to 100% each time.

For `Cc1c(-c2ccn(C(C)C)n2)sc2nc(-c3nccn3C)nc(NCCN3CCS(=O)(=O)CC3)c12` [Compound 23, 4-(2-((6-(1-Isopropyl-1H-pyrazol-3-yl)-5-methyl-2-(1-methyl-1H-imidazol-2-yl)thieno[2,3-d]pyrimidin-4-yl)amino)ethyl)thiomorpholine 1,1-dioxide], the inhibition at 10 µM in the assay with ERK1/2 phosphorylation and in the assay with AKT phosphorylation was 0% each time. Besides, the inhibition at 20 µM on KRas Q61H mutant (setting [1]) and at KRas Q61H mutant (setting [2]) was 76 to 100% in each case.

On to `CO[C@H]1CNC[C@@H](Nc2nc(-c3nccn3C)nc3sc(-c4ccn(C(C)C)n4)cc23)C1` [Compound 28, 6-(1-Isopropyl-1H-pyrazol-3-yl)-N-((3S,5R)-5-methoxypiperidin-3-yl)-2-(1-methyl-1H-imidazol-2-yl)thieno[2,3-d]pyrimidin-4-amine], for which the inhibition at 10 µM lay within 46 to 75% with ERK1/2 phosphorylation and 26 to 45% in the assay with AKT phosphorylation. Besides, the inhibition at 20 µM was in the range of 76 to 100% on KRas Q61H mutant (setting [1]) and 46 to 75% on KRas Q61H mutant (setting [2]).

Take `COCCn1c(-c2nccn2C)nc2sc(-c3ccn(C(C)C)n3)c(C)c2c1=O` [Compound 29, 6-(1-Isopropyl-1H-pyrazol-3-yl)-3-(2-methoxyethyl)-5-methyl-2-(1-methyl-1H-imidazol-2-yl)thieno[2,3-d]pyrimidin-4(3H)-one]: the inhibition at 10 µM in the assay on ERK1/2 phosphorylation and in the assay with AKT phosphorylation was 0% throughout. The inhibition at 20 µM on KRas Q61H mutant (setting [1]) was 76 to 100%; at KRas Q61H mutant (setting [2]), 46 to 75%.

On to `COCCOc1nc(-c2nccn2C)nc2sc(-c3ccn(C(C)C)n3)c(C)c12` [Compound 30, 6-(1-Isopropyl-1H-pyrazol-3-yl)-4-(2-methoxyethoxy)-5-methyl-2-(1-methyl-1H-imidazol-2-yl)thieno[2,3-d]pyrimidine], for which the inhibition at 10 µM in the assay with ERK1/2 phosphorylation and in the assay on AKT phosphorylation was 0% in each case. The inhibition at 20 µM on KRas Q61H mutant (setting [1]) is 1 to 25%; at KRas Q61H mutant (setting [2]), 0%.

`COCCCn1c(-c2nccn2C)nc2sc(-c3ccn(C(C)C)n3)c(C)c2c1=O` [Compound 31, 6-(1-Isopropyl-1H-pyrazol-3-yl)-3-(3-methoxypropyl)-5-methyl-2-(1-methyl-1H-imidazol-2-yl)thieno[2,3-d]pyrimidin-4(3H)-one]: the inhibition at 10 µM with ERK1/2 phosphorylation and in the assay with AKT phosphorylation was 0% each time. The inhibition at 20 µM at KRas Q61H mutant (setting [1]) and at KRas Q61H mutant (setting [2]) was 0% throughout.

On to `COCCCOc1nc(-c2nccn2C)nc2sc(-c3ccn(C(C)C)n3)c(C)c12` [Compound 32, 6-(1-Isopropyl-1H-pyrazol-3-yl)-4-(3-methoxypropoxy)-5-methyl-2-(1-methyl-1H-imidazol-2-yl)thieno[2,3-d]pyrimidine], for which the inhibition at 10 µM with ERK1/2 phosphorylation is 0%; in the assay on AKT phosphorylation, 1 to 25%. In addition, the inhibition at 20 µM at KRas Q61H mutant (setting [1]) and at KRas Q61H mutant (setting [2]) was 46 to 75% throughout.
